These results are taken from PubChem BioAssay (NCI).

Holding throughout (assay): growth of human tumour cells (NCI), 48 h
For experiment [1], the system named is SN12C renal.
Experiment [2] relates to HCC-2998 colon.
Experiment [3] has as its system SF-268 CNS.
For experiment [4], the system named is DU-145 prostate.
For experiment [5], the system named is OVCAR-3 ovarian.
In experiment [6] the test system is SW-620 colon.
The test system of experiment [7] is HT29 colon.
Experiment [8] deals with SF-295 CNS.
The subject of experiment [9] is EKVX NSCLC.
Experiment [10] has as its system MDA-N.
Experiment [11] deals with SK-MEL-5 melanoma.
The subject of experiment [12] is RPMI-8226 leukemia.

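Five compound concentrations were applied to cells in 96-well plates for 48 hours; endpoints were derived by simple linear interpolation of the resulting dose-response curve. At the TGI there is no net growth.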 A value given as a limit tells only on which side of the number the result lay.

As to `CCOC(=O)c1c(N2CCCC2)[nH]c(=O)c(C(c2cccs2)c2c(O)c(C(=O)OCC)c(N3CCCC3)[nH]c2=O)c1O`, the TGI in experiment [1], in experiment [2], in [3], in experiment [4], in experiment [5] and in experiment [6] was more than 100 µM in each case. The TGI in experiment [7], in experiment [8], in [9], in [10], in experiment [11] and in experiment [12] was more than 100 µM in each case.
For the molecule `O=C1Oc2cc3c(c4cccc1c24)O[C@H](c1ccccc1)[C@@H](c1ccccc1)[C@@H]3c1ccc(Cl)cc1`, the TGI in experiment [1], in experiment [2], in experiment [3], in experiment [4], in experiment [5] and in experiment [6] was more than 100 µM each time. Further, the TGI in experiment [7], in experiment [8], in experiment [9], in [10], in [11] and in [12] was more than 100 µM each time.
For the molecule `C=C(C)C12CC3CC/C(=N/O)C(C1)C3(N1CCOCC1)C/C2=N/O` (stereo unspecified), the TGI in [1], in experiment [2], in [3], in [4], in [5] and in experiment [6] was more than 100 µM in each case. Moreover, the TGI in [7], in experiment [8], in experiment [9], in experiment [10], in [11] and in experiment [12] was more than 100 µM in each case.
For the molecule `CCOP(=O)(OCC)/C(C#N)=C/c1c[nH]c2ccccc12`, the TGI in experiment [1], in experiment [2], in [3], in [4], in [5] and in [6] was more than 100 µM each time. In addition, the TGI in [7], in experiment [8], in experiment [9], in experiment [10], in [11] and in experiment [12] was more than 100 µM throughout.
With `COc1cc(C(=O)Oc2c(C#N)sc3c2c(=O)n(-c2ccccc2)c(=S)n3-c2ccccc2)cc(OC)c1OC`, the TGI in [1] was 32.3 µM; in experiment [2], 45.2 µM; in experiment [3], 84.2 µM; in [4], 42.3 µM; in experiment [5] it was more than 100 µM; in [6], 68 µM. In addition, the TGI in [7] is 22.4 µM; in experiment [8], 27.9 µM; in [9], 42.2 µM; in experiment [10], more than 100 µM; in experiment [11] it was 31.6 µM; in experiment [12], 28.2 µM.
On to `O=C(/C=C(\O)c1ccccc1)c1cc(-c2ccccc2)n(-c2ccccc2)n1`, for which the TGI in [1] was 39.9 µM; in experiment [2], more than 100 µM; in experiment [3], more than 100 µM; in [4] it was more than 100 µM; in experiment [5] it was more than 100 µM; in [6], more than 100 µM. Also, the TGI was 18.7 µM in experiment [7]; more than 100 µM in experiment [8]; more than 100 µM in experiment [9]; more than 100 µM in experiment [10]; 48.7 µM in experiment [11]; 6.1 µM in experiment [12].
In the case of `COCCOC(=O)C(C)=[N+]=[N-]`, the TGI in experiment [1], in experiment [2], in experiment [3], in [4], in experiment [5] and in [6] was more than 100 µM in each case. For the same molecule, the TGI in [7], in experiment [8], in experiment [9], in [10], in experiment [11] and in [12] was more than 100 µM in each case.
`COc1ccc(C(=O)Nc2ccc3oc(-c4ccccc4)nc3c2)cc1`: the TGI in [1], in experiment [2], in experiment [3], in experiment [4], in experiment [5] and in experiment [6] was more than 100 µM in each case. Moreover, the TGI in experiment [7], in [8], in [9], in [10], in [11] and in experiment [12] was more than 100 µM in each case.
Regarding `CC#CC(O)(C(=O)OC1CC2CCC(C1)N2C)C1CCCC1` (stereo unspecified), the TGI in [1], in experiment [2], in [3], in [4], in experiment [5] and in experiment [6] was more than 100 µM throughout. Further, the TGI in experiment [7], in experiment [8], in experiment [9], in experiment [10], in experiment [11] and in experiment [12] was more than 100 µM in each case.
On to `CC1OC(OC2C(Oc3cc(O)c4c(c3)O[C@H](c3ccc(O)cc3)CC4=O)OC(CO)C(O)C2O)C(O)C(O)C1O` (stereo partly specified), for which the TGI in experiment [1], in experiment [2], in experiment [3], in [4], in [5] and in [6] was more than 100 µM throughout. In addition, the TGI in experiment [7], in experiment [8], in experiment [9], in [10], in experiment [11] and in [12] was more than 100 µM throughout.
For the molecule `COc1ccccc1CNC(=O)[C@H](Cc1ccc(O)cn1)NC(C)=O`, the TGI in [1], in experiment [2], in [3], in experiment [4], in [5] and in experiment [6] was more than 100 µM in each case. Moreover, the TGI in [7], in [8], in experiment [9], in experiment [10], in experiment [11] and in experiment [12] was more than 100 µM in each case.
As for `CC[C@@H]1/C=C/C=C/C[C@H](C)[C@@H](O)[C@](C)(O)C(=O)[C@H](C)[C@@H](O)[C@H](C)C(=O)[C@H](C)[C@@H](O)[C@H](C)/C=C/C(=O)O[C@H]2[C@@H](C)[C@@H](CC1)O[C@@]1(CC[C@@H](C)[C@@H](CC(C)O)O1)[C@@H]2C` (stereo partly specified), the TGI in experiment [1] was 4.95 µM; in experiment [2], 6.68 µM; in [3], 12.7 µM; in experiment [4] it was 6.76 µM; in experiment [5], 3.95 µM; in experiment [6], more than 42 µM. Moreover, the TGI was determined as 4.19 µM in [7]; 9.05 µM in experiment [8]; 10.8 µM in [9]; 6.72 µM in experiment [10]; 1.7 µM in experiment [11]; 10.3 µM in experiment [12].
Consider `O=c1[nH]c2c(c(=O)[nH]1)SSC2`, for which the TGI in [1] is 7.95 µM; in [2], 30.5 µM; in experiment [3], 13.6 µM; in experiment [4] it was 28.9 µM; in experiment [5], 38 µM; in [6], 29.9 µM. Besides, the TGI is 40 µM in experiment [7]; 36.6 µM in experiment [8]; more than 81.4 µM in [9]; 3.17 µM in experiment [10]; 29.1 µM in [11]; 6.83 µM in experiment [12].
